Experimental findings from publication PMC6337631, “Effective Tetradentate Compound Complexes against Leishmania spp. that Act on Critical Enzymatic Pathways of These Parasites” (Molecules, 2018) are described below.

As a reminder, the IC50 is the point on the concentration scale where inhibition reaches its midpoint.

For assay [1], the system named is L. donovani promastigotes. Description: Metabolite excretion by 1H-NMR, L. donovani. The following applies: IC25 concentration, 72 h, vs untreated. It is filed as cell-based, Leishmania donovani. As for the experimental part:
Trypanosomatids catabolizes glucose at a high rate, excreting into the medium partly oxidized end products such as acetate, succinate, L-alanine or L-lactate.
Cultures of L. donovani, L. infantum and L. braziliensis promastigotes were seeded in culture flaks at 5 × 10^5 cells/mL, and after the addition of the compounds at IC25 concentrations at 28 °C. Control cultures were also included. After 72 h of incubation, parasites were centrifuged at 400 × g for 10 min, and supernatants were collected in order to determine the excreted metabolites by ^1H-NMR. Chemical shifts were expressed in parts per million (ppm) using sodium 2,2-dimethyl-2-silapentane-5-sulphonate as the reference signal. The One-dimensional ^1H-NMR spectra were acquired with a VARIAN DIRECT DRIVE 400 MHz Bruker spectrometer (Rheinstetten, Germany) with an AutoX probe using D2O as solvent. The chemical shifts used to identify the respective metabolites were consistent with those described previously by some of the authors. The spectral region of 1.0–5.5 ppm was bucketed into a frequency window of 0.1 ppm. The peak (2.6 ppm) corresponding to DMSO was removed before binning, and the regions corresponding to water (4.5–5.5 ppm) and glucose (3.4–3.8 ppm) were excluded during binning to avoid artefacts due to pre-saturation. The aromatic region was excluded because the signal to noise ratio in this region was poorer in comparison to the aliphatic region. The resulting integrals were normalised to the working region (1.0–3.4) ppm of the spectrum to correct for inter-sample differences in dilution. The binning and normalisations were achieved using Mestrenova 9.0 software (Santiago de Compostela, Spain). The matrix obtained in Mestrenova was imported into Microsoft Excel (Redmond, WA, USA) for further data analyses.

Another assay deals with T1, human CuZn-SOD (Homo sapiens, UniProt P00441).
T1 construct: purchased Sigma Chemical Co. (St. Louis, MO, USA)
T1 sequence (P00441 whole entry): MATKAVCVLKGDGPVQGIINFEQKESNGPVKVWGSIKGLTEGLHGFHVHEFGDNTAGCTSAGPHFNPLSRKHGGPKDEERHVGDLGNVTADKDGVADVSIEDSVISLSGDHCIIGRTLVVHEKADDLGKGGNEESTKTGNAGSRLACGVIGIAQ
Description: SOD inhibition assay, human CuZn-SOD. It is filed as biochemical. The following applies: assayed 100 µM to 0.1 µM; non-linear regression. As to the method:
The previous extraordinary results prompted us to evaluate the inhibitory effect of 3, 5–8 and 10 on the SOD activity. […]
Parasite cells were collected in the exponential growth phase by centrifugation (400g for 10 min). The pellet obtained after centrifugation was lysated by sonication, processed according to [38] and obtained the homogenate fraction which contained the parasite Fe-SOD. The protein content was quantified using the Sigma Bradford test, which uses BSA as a standard (no trace ability was certified for the BSA standard). Superoxide dismutase activities were determined using a method previously described, which measures the reduction in nitrobluetetrazolium (NBT) by superoxide ions. Human CuZn-SOD. Substrates used in these assays were obtained from Sigma Chemical Co. (St. Louis, MO, USA). Resulting data were analysed using the Newman−Keuls test.

For assay [2], the system named is L. infantum promastigotes. As to the kind of experiment: Ultrastructural alterations by TEM, L. infantum. Type of assay: cell-based, Leishmania infantum. The following applies: 72 h at IC25 concentration. As to the method: (§1) Parasites were cultured at a density of 5 × 10^5 cells/mL with medium containing the tested compounds at IC25 concentrations. After 72 h at 28 °C, the cultures were processed using a technique previously described and analysed by TEM (LIBRA 120 PLUS, Zeiss, Barcelona, Spain).

Assay [3] deals with Leishmania infantum promastigote forms. As to the kind of experiment: Promastigote test (extracellular forms), L. infantum. The following applies: Leishmania infantum; 72 h; 100 µM to 1 µM; mean ± SD of four determinations. Type of assay: cell-based. As to the method: Promastigote forms of three different Leishmania spp., L. donovani (MHOM/PE/84/LC26), L. infantum (MCAN/ES/2001/UCM-10) and L. braziliensis (MHOM/BR/1975/M2904), were cultured in vitro in Medium Trypanosomes Liquid (MTL) supplemented with 10% inactivated foetal calf serum (FCS) in an air atmosphere at 28 °C, in Roux flasks (Corning, Manassas, VA, USA) with a surface area of 75 cm^2, according to [33].
The compounds and the reference drug Glu were dissolved in DMSO (Panreac, Barcelona, Spain) and tested from 100 µM to 1 µM with 0.1% (v/v) DMSO final concentration in plates. Therefore, controls were prepared including 0.1% (v/v) of this component, as previously described.
Promastigote forms were collected in the exponential growth phase and seeded at 1 × 10^5 parasites/mL in 24-well microplates (Nunc, Naperville, IL, USA), after adding each compound at concentrations from 100 µM to 1 µM and cultured in 500 μL/well volumes at 28 °C. After 72 h incubation, the leishmanicidal activity was assessed using a Neubauer haemocytometric chamber in comparison with the control cultures. […] Each drug concentration was tested in triplicate in four separate determinations.

Assay [4] relates to L. donovani promastigotes. Description: Ultrastructural alterations by TEM, L. donovani. Type of assay: cell-based, Leishmania donovani. The following applies: 72 h at IC25 concentration. As to the method:
as §1

Consider `CN(C)c1ccnc(CN2CCC[C@H]2[C@@H]2CCCN2Cc2cc(N(C)C)ccn2)c1` [Compound 7], for which, in assay [1], the “Excretion variation ACETATE, L. donovani” value is over 50%; the “Excretion variation L-ALANINE, L. donovani” value was 64%; the “Excretion variation SUCCINATE, L. donovani” value is recorded as over 50%. On human CuZn-SOD, this compound returned a 50% inhibitory concentration (IC50) of over 500 µM. Further, the “ultrastructural alterations of L. infantum promastigotes (TEM)” value in assay [2] is listed as “most destructive compounds”. It took 12.3 ± 2.2 µM to reach half-maximal inhibition in assay [3] (IC50). For the same compound, the “ultrastructural alterations of L. donovani promastigotes (TEM)” value in assay [4] was “cytoplasmic emptiness, none or a few ribosomes, swollen and disintegrated mitochondria and abundant lipid and non-lipid vacuoles”.
